# Assay results published in patent EP0353047B1, “Use of imidazopyrazole derivatives as analgesics and anti-inflammatory agents” (Sankyo Company Limited, priority 1988, dated 1990).
# Marks after values point to notes of the source that are not given here.
# Tests used:
# [1] = system: carrageenan-induced edema; test: Anti-inflammatory effect (carrageenan edema method); format: in vivo, rats of the Wistar strain; conditions: Rattus norvegicus; percent inhibition of carrageenan-induced edema; dose 25 mg/kg (*), oral
# Experimental: The percent inhibition against carrageenan-induced edema in rats of the Wistar strain, using the conventional method of C.A. Winter, E.A. Risley, G.W. Nuss [J. Pharmacol., Exp. Therap., 141, 369 (1963)]. Except where otherwise noted, the dose of test compound was 50 mg/kg.
# [2] = system: inflammation induced by anti-rat IgG rabbit serum; test: Anti-inflammatory effect (reversed passive alusas reaction, Evans blue extraction); format: in vivo, rats of the Sprague-Dawley strain; conditions: 2.5 h, percent inhibition of inflammation relative to control group, dose 25 mg/kg (*), oral
# Experimental: The test animals were rats of the Sprague-Dawley strain, which had first been fasted for 17 hours. The hair was trimmed from their dorsal portions by means of a hair clipper, and 0.1 ml/site of anti-rat IgG rabbit serum was injected intracutaneously at the trimmed part to induce inflammation. Except in the case of the control animals, to which no anti-inflammatory drug was administered, the test drug was administered orally immediately before inflammation was induced. Except where otherwise noted, the dose of test compound was 50 mg/kg. Two hours after induction of inflammation, a 1% by volume solution of Evans blue in physiological saline was injected intravenously into the tail of each rat in an amount of 1 ml per each animal. 30 minutes after this injection, the rats were sacrificed with carbon dioxide and their skins were peeled off to extract the chromogen of the blue spots. In more detail, the skins were cut into small pieces and extracted with 5 ml of an extraction solvent at room temperature for 2 days. The supernatant obtained by centrifugation was then measured spectrophotometrically at an absorption wavelength of 605 nm. The percent inhibition of inflammation of the group of rats to which the test drug was administered was determined relative to the control group.
# [3] = system: rats of the Wistar strain; test: Analgesic effect (Randall-Selitto method); format: in vivo; conditions: fraction of animals; dose 25 mg/kg (*), oral
# Experimental: These tests were conducted according to the Randall-Selitto method using rats of the Wistar strain [L.O. Randall, J.J. Selitto: Arch. int. Pharmacodyn. 111, 409 (1957)]. Except where otherwise noted, the dose of test compound was 50 mg/kg.
# [4] = Acute toxicity; format: in vivo; conditions: mouse, in vivo; fraction of animals; dose 300 mg/kg oral in 0.5% carboxymethyl cellulose, observed for 7 days
# Experimental: The test animals employed were male mice of the ddy strain (age: 5 weeks). […] The dose of test compound was 300 mg/kg.
compound,measurement,setting,value
"Cc1ccc(-c2cnn3cc[nH]c23)cc1 [Example 35, 7-(p-methylphenyl)-1H-imidazo[1,2-b]pyrazole]",inhibition in vivo at 25 mg/kg,[1],56.4%
same,inhibition in vivo at 25 mg/kg,[2],69.9%
same,Analgesic effect (Randall-Selitto),[3],5/5*
same,mortality at 168 h,[4],30%
